Results reported in patent US20260028365A1 (BIOGEN MA INC., priority 2022, published 2026).

Tests used:
JH2 domain of human Tyk2 = JH2 domain of human Tyk2 (Homo sapiens (Human), UniProt P29597); assay: JH2 Biochemical Assay (TR-FRET probe displacement); type: binding; details: JH2 domain of human Tyk2, TR-FRET probe displacement
Tyk2 = Tyk2 (Homo sapiens (Human), UniProt P29597); assay: pSTAT4 Cell Assay (MSD, NK92 cells); type: cell-based; details: MSD
Tyk2, sequence (P29597 whole entry): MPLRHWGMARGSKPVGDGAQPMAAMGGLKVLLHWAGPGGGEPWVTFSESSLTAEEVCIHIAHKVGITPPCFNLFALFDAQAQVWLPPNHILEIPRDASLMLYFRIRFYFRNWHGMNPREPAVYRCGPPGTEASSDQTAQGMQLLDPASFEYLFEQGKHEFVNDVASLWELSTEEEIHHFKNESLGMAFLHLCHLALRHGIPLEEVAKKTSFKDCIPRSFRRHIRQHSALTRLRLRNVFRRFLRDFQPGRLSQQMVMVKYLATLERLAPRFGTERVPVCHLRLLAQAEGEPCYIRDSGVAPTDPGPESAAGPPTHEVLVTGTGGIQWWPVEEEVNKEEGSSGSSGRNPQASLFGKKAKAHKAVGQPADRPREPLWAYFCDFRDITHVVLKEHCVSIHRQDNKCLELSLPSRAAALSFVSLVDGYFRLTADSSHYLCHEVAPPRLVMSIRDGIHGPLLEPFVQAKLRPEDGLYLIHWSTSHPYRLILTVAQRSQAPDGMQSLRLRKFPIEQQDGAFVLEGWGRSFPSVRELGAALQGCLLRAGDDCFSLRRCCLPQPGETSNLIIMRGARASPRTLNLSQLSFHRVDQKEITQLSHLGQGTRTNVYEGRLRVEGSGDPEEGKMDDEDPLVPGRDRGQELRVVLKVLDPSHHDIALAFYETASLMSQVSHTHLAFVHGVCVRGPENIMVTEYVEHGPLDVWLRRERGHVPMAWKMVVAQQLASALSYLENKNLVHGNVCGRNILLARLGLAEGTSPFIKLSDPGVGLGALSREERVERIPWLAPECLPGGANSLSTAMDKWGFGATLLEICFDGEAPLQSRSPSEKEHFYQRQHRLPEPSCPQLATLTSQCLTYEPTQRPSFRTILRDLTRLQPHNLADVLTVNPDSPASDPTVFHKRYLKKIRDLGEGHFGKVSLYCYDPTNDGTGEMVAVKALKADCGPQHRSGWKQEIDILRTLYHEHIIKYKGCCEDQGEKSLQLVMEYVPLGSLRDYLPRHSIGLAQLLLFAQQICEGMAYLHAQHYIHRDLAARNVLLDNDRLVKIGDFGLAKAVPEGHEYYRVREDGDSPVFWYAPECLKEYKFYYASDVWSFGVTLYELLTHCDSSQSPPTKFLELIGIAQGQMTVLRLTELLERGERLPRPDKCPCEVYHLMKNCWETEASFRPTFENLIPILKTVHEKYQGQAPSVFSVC

JH2 domain of human Tyk2, sequence (P29597 575-876): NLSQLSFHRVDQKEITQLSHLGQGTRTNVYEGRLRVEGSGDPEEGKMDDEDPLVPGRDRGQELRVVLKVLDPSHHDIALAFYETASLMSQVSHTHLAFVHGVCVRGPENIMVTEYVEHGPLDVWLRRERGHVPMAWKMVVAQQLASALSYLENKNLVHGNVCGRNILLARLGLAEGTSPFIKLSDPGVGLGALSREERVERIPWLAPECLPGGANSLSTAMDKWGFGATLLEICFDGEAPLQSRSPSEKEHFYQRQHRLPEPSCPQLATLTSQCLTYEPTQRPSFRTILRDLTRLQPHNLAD

COc1cnc(NC(C)=O)cc1Nc1cc(-c2cc(C#N)c3nc(C)cn3c2)nc(C(C)(F)F)n1 [Example 402, N-(4-((6-(8-cyano-2-methylimidazo[1,2-a]pyridin-6-yl)-2-(1,1-difluoroethyl)pyrimidin-4-yl)amino)-5-methoxypyridin-2-yl)acetamide]
IC50 (JH2 domain of human Tyk2): 10 to 100 nM | IC50 (Tyk2): 100 to 1000 nM

CC(=O)Nc1cc(Nc2cc(C)nc(C(C)(F)F)n2)c(OCCF)cn1 [Example 404, N-(4-((2-(1,1-difluoroethyl)-6-methylpyrimidin-4-yl)amino)-5-(2-fluoroethoxy)pyridin-2-yl)acetamide]
IC50 (JH2 domain of human Tyk2): ≤ 10 nM | IC50 (Tyk2): 10 to 100 nM

CCc1cc(Nc2cc(NC(C)=O)ncc2OCCCF)nc(C(C)(F)F)n1 [Example 405, N-(4-((2-(1,1-difluoroethyl)-6-ethylpyrimidin-4-yl)amino)-5-(3-fluoropropoxy)pyridin-2-yl)acetamide]
IC50 (JH2 domain of human Tyk2): ≤ 10 nM | IC50 (Tyk2): 10 to 100 nM

CCc1cc(Nc2cc(NC(C)=O)ncc2OCCF)nc(C(C)(F)F)n1 [Example 407, N-(4-((2-(1,1-difluoroethyl)-6-ethylpyrimidin-4-yl)amino)-5-(2-fluoroethoxy)pyridin-2-yl)acetamide]
IC50 (JH2 domain of human Tyk2): ≤ 10 nM | IC50 (Tyk2): ≤ 10 nM

CO[C@H]1C[C@H](Oc2cnc(NC(C)=O)cc2Nc2cc(C(C)C)nc(C(C)(F)F)n2)C1 [Example 408, N-(4-((2-(1,1-difluoroethyl)-6-isopropylpyrimidin-4-yl)amino)-5-((1r,3r)-3-methoxycyclobutoxy)pyridin-2-yl)acetamide]
IC50 (JH2 domain of human Tyk2): ≤ 10 nM | IC50 (Tyk2): ≤ 10 nM

CO[C@H]1C[C@@H](Oc2cnc(NC(C)=O)cc2Nc2cc(C(C)C)nc(C(C)(F)F)n2)C1 [Example 409, N-(4-((2-(1,1-difluoroethyl)-6-isopropylpyrimidin-4-yl)amino)-5-((1s,3s)-3-methoxycyclobutoxy)pyridin-2-yl)acetamide]
IC50 (JH2 domain of human Tyk2): ≤ 10 nM | IC50 (Tyk2): 10 to 100 nM

CC(=O)Nc1cc(Nc2cc(C(C)C)nc(C(C)(F)F)n2)c(O[C@H]2C[C@H](F)C2)cn1 [Example 410, N-(4-((2-(1,1-difluoroethyl)-6-isopropylpyrimidin-4-yl)amino)-5-((1r,3r)-3-fluorocyclobutoxy)pyridin-2-yl)acetamide]
IC50 (JH2 domain of human Tyk2): ≤ 10 nM | IC50 (Tyk2): ≤ 10 nM

CC(=O)Nc1cc(Nc2cc(C(C)C)nc(C(C)(F)F)n2)c(O[C@H]2C[C@@H](F)C2)cn1 [Example 411, N-(4-((2-(1,1-difluoroethyl)-6-isopropylpyrimidin-4-yl)amino)-5-((1s,3s)-3-fluorocyclobutoxy)pyridin-2-yl)acetamide]
IC50 (JH2 domain of human Tyk2): ≤ 10 nM | IC50 (Tyk2): 10 to 100 nM

CC(=O)Nc1cc(Nc2cc(C)nc(C(C)(F)F)n2)c(O[C@H]2C[C@@H](F)C2)cn1 [Example 412, N-(4-((2-(1,1-difluoroethyl)-6-methylpyrimidin-4-yl)amino)-5-((1s,3s)-3-fluorocyclobutoxy)pyridin-2-yl)acetamide]
IC50 (JH2 domain of human Tyk2): ≤ 10 nM | IC50 (Tyk2): 10 to 100 nM

CCc1cc(Nc2cc(NC(C)=O)ncc2O[C@H]2C[C@@H](F)C2)nc(C(C)(F)F)n1 [Example 413, N-(4-((2-(1,1-difluoroethyl)-6-ethylpyrimidin-4-yl)amino)-5-((1s,3s)-3-fluorocyclobutoxy)pyridin-2-yl)acetamide]
IC50 (JH2 domain of human Tyk2): ≤ 10 nM | IC50 (Tyk2): ≤ 10 nM

CC(=O)Nc1cc(Nc2cc(-c3cnn(C(C)C)c3)nc(C(C)(F)F)n2)c(O[C@H]2C[C@@H](F)C2)cn1 [Example 414, N-(4-((2-(1,1-difluoroethyl)-6-(1-isopropyl-1H-pyrazol-4-yl)pyrimidin-4-yl)amino)-5-((1s,3s)-3-fluorocyclobutoxy)pyridin-2-yl)acetamide]
IC50 (JH2 domain of human Tyk2): ≤ 10 nM | IC50 (Tyk2): ≤ 10 nM

[2H]C([2H])([2H])Oc1cnc(NC(C)=O)cc1Nc1cc(OC2CC2)nc(C(C)(F)F)n1 [Example 415, N-(4-((6-cyclopropoxy-2-(1,1-difluoroethyl)pyrimidin-4-yl)amino)-5-(methoxy-d3)pyridin-2-yl)acetamide]
IC50 (JH2 domain of human Tyk2): ≤ 10 nM | IC50 (Tyk2): ≤ 10 nM

COc1cnc(NC(C)=O)cc1Nc1cc(-c2cn[nH]c2)nc(C(C)(F)F)n1 [Example 416, N-(4-((2-(1,1-difluoroethyl)-6-(1H-pyrazol-4-yl)pyrimidin-4-yl)amino)-5-methoxypyridin-2-yl)acetamide]
IC50 (JH2 domain of human Tyk2): ≤ 10 nM | IC50 (Tyk2): 100 to 1000 nM

CC(=O)Nc1cc(Nc2cc(C)nc(C(C)(F)F)n2)c(OCC2(F)CCCOC2)cn1 (centres unmarked) [Example 417, N-(4-((2-(1,1-difluoroethyl)-6-methylpyrimidin-4-yl)amino)-5-((3-fluorotetrahydro-2H-pyran-3-yl)methoxy)pyridin-2-yl)acetamide]
IC50 (JH2 domain of human Tyk2): ≤ 10 nM | IC50 (Tyk2): ≤ 10 nM

CC(=O)Nc1cc(Nc2cc(C)nc(C(C)(F)F)n2)c(OCC2COCC(C)(C)O2)cn1 (centres unmarked) [Example 419, N-(4-((2-(1,1-difluoroethyl)-6-methylpyrimidin-4-yl)amino)-5-((6,6-dimethyl-1,4-dioxan-2-yl)methoxy)pyridin-2-yl)acetamide]
IC50 (JH2 domain of human Tyk2): ≤ 10 nM | IC50 (Tyk2): ≤ 10 nM

CC(=O)Nc1cc(Nc2cc(C)nc(C(C)(F)F)n2)c(OCC(F)C2CCC2)cn1 (centres unmarked) [Example 420, N-(5-(2-cyclobutyl-2-fluoroethoxy)-4-((2-(1,1-difluoroethyl)-6-methylpyrimidin-4-yl)amino)pyridin-2-yl)acetamide]
IC50 (JH2 domain of human Tyk2): ≤ 10 nM | IC50 (Tyk2): 10 to 100 nM

CC(=O)Nc1cc(Nc2cc(C)nc(C(C)(F)F)n2)c(OC[C@]23CO[C@](CF)(C2)C3)cn1 [Example 421, N-(4-((2-(1,1-difluoroethyl)-6-methylpyrimidin-4-yl)amino)-5-(((1r,4s)-1-(fluoromethyl)-2-oxabicyclo[2.1.1]hexan-4-yl)methoxy)pyridin-2-yl)acetamide]
IC50 (JH2 domain of human Tyk2): ≤ 10 nM | IC50 (Tyk2): 10 to 100 nM

CC(=O)Nc1cc(Nc2cc(C)nc(C(C)(F)F)n2)c(OCC2CC23CC3)cn1 (centres unmarked) [Example 422, N-(4-((2-(1,1-difluoroethyl)-6-methylpyrimidin-4-yl)amino)-5-(spiro[2.2]pentan-1-ylmethoxy)pyridin-2-yl)acetamide]
IC50 (JH2 domain of human Tyk2): ≤ 10 nM | IC50 (Tyk2): 10 to 100 nM

CC(=O)Nc1cc(Nc2cc(C)nc(C(C)(F)F)n2)c(OC[C@]23CC[C@@H](CC2)O3)cn1 [Example 423, N-(5-(((1r,4r)-7-oxabicyclo[2.2.1]heptan-1-yl)methoxy)-4-((2-(1,1-difluoroethyl)-6-methylpyrimidin-4-yl)amino)pyridin-2-yl)acetamide]
IC50 (JH2 domain of human Tyk2): ≤ 10 nM | IC50 (Tyk2): 10 to 100 nM

CCC(COc1cnc(NC(C)=O)cc1Nc1cc(C)nc(C(C)(F)F)n1)OC (centres unmarked) [Example 424, N-(4-((2-(1,1-difluoroethyl)-6-methylpyrimidin-4-yl)amino)-5-(2-methoxybutoxy)pyridin-2-yl)acetamide]
IC50 (JH2 domain of human Tyk2): ≤ 10 nM | IC50 (Tyk2): 10 to 100 nM

CC(=O)Nc1cc(Nc2cc(C)nc(C(C)(F)F)n2)c(OCC(C)OC(C)(C)C)cn1 (centres unmarked) [Example 427, N-(5-(2-(tert-butoxy)propoxy)-4-((2-(1,1-difluoroethyl)-6-methylpyrimidin-4-yl)amino)pyridin-2-yl)acetamide]
IC50 (JH2 domain of human Tyk2): ≤ 10 nM | IC50 (Tyk2): 10 to 100 nM

CC(=O)Nc1cc(Nc2cc(C)nc(C(C)(F)F)n2)c(OCC(F)C(C)C)cn1 (centres unmarked) [Example 429, N-(4-((2-(1,1-difluoroethyl)-6-methylpyrimidin-4-yl)amino)-5-(2-fluoro-3-methylbutoxy)pyridin-2-yl)acetamide]
IC50 (JH2 domain of human Tyk2): ≤ 10 nM | IC50 (Tyk2): 10 to 100 nM

CC(=O)Nc1cc(Nc2cc(C)nc(C(C)(F)F)n2)c(OCC2(C)CCOC2)cn1 (centres unmarked) [Example 431, N-(4-((2-(1,1-difluoroethyl)-6-methylpyrimidin-4-yl)amino)-5-((3-methyltetrahydrofuran-3-yl)methoxy)pyridin-2-yl)acetamide]
IC50 (JH2 domain of human Tyk2): ≤ 10 nM | IC50 (Tyk2): 100 to 1000 nM

CC(=O)Nc1cc(Nc2cc(C)nc(C(C)(F)F)n2)c(OCC2CC23CCOC3)cn1 (centres unmarked) [Example 432, N-(5-((5-oxaspiro[2.4]heptan-1-yl)methoxy)-4-((2-(1,1-difluoroethyl)-6-methylpyrimidin-4-yl)amino)pyridin-2-yl)acetamide]
IC50 (JH2 domain of human Tyk2): ≤ 10 nM | IC50 (Tyk2): 10 to 100 nM

CC(=O)Nc1cc(Nc2cc(C)nc(C(C)(F)F)n2)c(OCC2CC3(CCC3)CO2)cn1 (centres unmarked) [Example 433, N-(5-((6-oxaspiro[3.4]octan-7-yl)methoxy)-4-((2-(1,1-difluoroethyl)-6-methylpyrimidin-4-yl)amino)pyridin-2-yl)acetamide]
IC50 (JH2 domain of human Tyk2): ≤ 10 nM | IC50 (Tyk2): ≤ 10 nM

CC(=O)Nc1cc(Nc2cc(C)nc(C(C)(F)F)n2)c(OCCCC2CCCO2)cn1 (centres unmarked) [Example 434, N-(4-((2-(1,1-difluoroethyl)-6-methylpyrimidin-4-yl)amino)-5-(3-(tetrahydrofuran-2-yl)propoxy)pyridin-2-yl)acetamide]
IC50 (JH2 domain of human Tyk2): ≤ 10 nM | IC50 (Tyk2): 10 to 100 nM

COc1cnc(NC(C)=O)cc1Nc1nc(C)cc(C(F)(F)F)n1 [Example 436, N-(5-methoxy-4-((4-methyl-6-(trifluoromethyl)pyrimidin-2-yl)amino)pyridin-2-yl)acetamide]
IC50 (JH2 domain of human Tyk2): 100 to 1000 nM | IC50 (Tyk2): ≥ 1000 nM

COCCOc1cnc(NC(C)=O)cc1Nc1cncc(C(C)(C)F)n1 [Example 439, N-(4-((6-(2-fluoropropan-2-yl)pyrazin-2-yl)amino)-5-(2-methoxyethoxy)pyridin-2-yl)acetamide]
IC50 (JH2 domain of human Tyk2): ≤ 10 nM | IC50 (Tyk2): 10 to 100 nM

COCC(C)COc1cnc(NC(C)=O)cc1Nc1cc(C)nc(C(C)(F)F)n1 (centres unmarked) [Example 440, N-(4-((2-(1,1-difluoroethyl)-6-methylpyrimidin-4-yl)amino)-5-(3-methoxy-2-methylpropoxy)pyridin-2-yl)acetamide]
IC50 (JH2 domain of human Tyk2): ≤ 10 nM | IC50 (Tyk2): 10 to 100 nM

COCCOc1cnc(NC(C)=O)cc1Nc1nc(C)cc(C(C)(C)F)n1 [Example 441, N-(4-((4-(2-fluoropropan-2-yl)-6-methylpyrimidin-2-yl)amino)-5-(2-methoxyethoxy)pyridin-2-yl)acetamide]
IC50 (JH2 domain of human Tyk2): ≤ 10 nM | IC50 (Tyk2): 100 to 1000 nM

CC(=O)Nc1cc(Nc2cc(C)nc(C(C)(F)F)n2)c(OCC2COCC3(CCC3)O2)cn1 (centres unmarked) [Example 443, N-(5-((5,8-dioxaspiro[3.5]nonan-6-yl)methoxy)-4-((2-(1,1-difluoroethyl)-6-methylpyrimidin-4-yl)amino)pyridin-2-yl)acetamide]
IC50 (JH2 domain of human Tyk2): ≤ 10 nM | IC50 (Tyk2): 10 to 100 nM
